What was measured:
NCI-H929 xenograft tumor = assay: Pharmacodynamic test: NCI-H929 xenograft tumor in CB-17 SCID mice; format: in vivo
Method: This experiment was performed to evaluate the inhibition effect of the compound of Example 6 and the control example CC-92480 on the growth of human multiple myeloma cell NCI-H929 xenograft tumor in CB-17 SCID mice.
Compound of Example 6; control example CC-92480 (see compound 2 of WO2019014100A1, synthesized according to the method disclosed therein)
Solutions of the compound of Example 6 and the control example CC-92480 were prepared with 5% DMSO+20% PEG400+70% (10% TPGS)+5% (1% HPMC K100LV).
Thirty CB-17 SCID female mice, purchased from Beijing Vital River Laboratory Animal Technology Co., Ltd. (certificate No. 20170011006049, SCXK (Shanghai) 2017-0011), weighing about 19 g at the time of purchase, were bred at 5 mice/cage (in 12/12 hour light/dark cycle, at a constant temperature of 23±1° C. and humidity of 50%-60%) and had free access to food and water.
After adaptive feeding, the CB-17 SCID mice were grouped as follows:
NCI-H929 cells in a logarithmic growth phase were inoculated subcutaneously into the right flank of 30 female CB-17 SCID mice at 5×10^6 cells/mouse/100 μL (containing 50 μL of Matrigel). After 10 days, when the tumor volume of the tumor-bearing mice reached about 200 mm^3, the mice were randomly divided into 3 groups according to the tumor volume and body weight: vehicle control group, CC-92480-1 mpk, compound of Example 6-1 mpk, with 7 mice in each group. The day of grouping was set as Day 0 (D0), and intragastric administration was performed once a day for 11 days (Table 2). For the tumor-bearing mice, the tumor volume was measured with a vernier caliper and the body weight was measured with a balance twice a week, and the data were recorded.
All data were plotted and statistically analyzed using Excel and GraphPad Prism 5 software.
The tumor volume (V) was calculated as follows: V=½×a×b^2, where a and b represent length and width, respectively.
The relative tumor proliferation rate T/C (%)=(T−T0)/(C−C0)×100(%), where T and C are the tumor volume of animals at the end of the experiment in the treatment group and control group, respectively; T0 and C0 are the tumor volume of animals at the beginning of the experiment in the treatment group and control group, respectively.
Tumor growth inhibition TGI (%)=1−T/C (%), and when TGI (%) exceeds 100%, no specific value will be shown, and it is expressed only by >100%.
Tumor regression (%)=[(T0−T)/T0]×100(%).

[1] = Pharmacokinetic evaluation in mice after intragastric administration (LC/MS/MS); format: in vivo; settings: female, mouse, in vivo, po, 2 mg/kg
Method: The drug concentration in the plasma of the test animals (mice) at different time points after intragastric administration of the compound of Example 6 and the control example CC-92480 was determined by an LC/MS/MS method. The pharmacokinetic behavior of the compound of the present disclosure in mice was studied and its pharmacokinetic profile was evaluated.
(§1) Compound of Example 6 and control example CC-92480.
Eighteen mice, female, purchased from Beijing Vital River Laboratory Animal Technology Co., Ltd., with animal production license number of SCXK (Shanghai) 2017-0005.
A certain amount of compound of Example 6 was weighed, dissolved by adding 5% by volume of DMSO and 5% Tween 80 (Shanghai Titan Scientific Co., Ltd.), and then prepared into a 0.1 mg/mL clear solution by adding 90% normal saline.
A certain amount of the control example CC-92480 was weighed, dissolved by adding 5% by volume of DMSO and 5% Tween 80 (Shanghai Titan Scientific Co., Ltd.), and then prepared into a 0.1 mg/mL clear solution by adding 90% normal saline.
Nine mice were intragastrically administered with the compound of Example 6 at a dose of 2 mg/kg and at a volume of 0.2 mL/10 g.
Nine mice were intragastrically administered with the control example CC-92480 at a dose of 2 mg/kg and at a volume of 0.2 mL/10 g.
Mice were intragastrically administered with the compound of Example 6 and the control example CC-92480, and 0.2 mL of blood was collected before the administration and 0.25 h, 0.5 h, 1.0 h, 2.0 h, 4.0 h, 6.0 h, 8.0 h, 11.0 h and 24.0 h after the administration (3 animals at each time point), placed in EDTA-K2 anticoagulation tubes, and centrifuged at 10,000 rpm for 1 min(4° C.). Plasma was separated within 1 h, and stored at −20° C. for testing. The process from blood collection to centrifugation was performed under an ice bath.
The content of the test compounds at different concentrations in mouse plasma after the administration was determined: 25 μL of mouse plasma at each time point after the administration was mixed with 50 μL (100 ng/mL) of internal standard solution camptothecin (National Institutes for Drug Control) and 175 μL of acetonitrile. The mixture was vortexed for 5 min and centrifuged for 10 min (3700 rpm/min), and 1 μL of the supernatant of the plasma sample was taken for LC/MS/MS assay (API4000 triple quadrupole tandem mass spectrometer, Applied Biosystems, USA; Shimadzu, LC-30AD ultra high performance liquid chromatography system, Shimadzu, Japan).

[2] = Plasma stability in monkey plasma (LC-MS/MS); format: in vitro ADME; settings: monkey, plasma
Method: The stability of the compound of Example 6 and the control example CC-92480 after incubation in cryopreserved monkey plasma at 37° C. for 0 min, 15 min, 30 min, 60 min, 120 min, 180 min and 240 min was determined quantitatively by LC-MS/MS.
as §1
Monkey plasma was purchased from Shanghai Medicilon Inc.
A certain amount of the compound of Example 6 was weighed and prepared with DMSO to obtain a 30 mM stock solution. A certain volume of the stock solution was diluted into a solution I at a concentration of 1600 μM with DMSO; and a certain volume of the solution I at 1600 μM was diluted with 50% methanol to obtain a working solution II at a concentration of 16 μM. A 30 mM stock solution, a 1600 μM solution I′, and a 16 μM working solution II′ of CC-92480 were prepared as described above.
5 μL of the working solutions at 16 μM of the compound of Example 6 and the control example CC-92480 were each added to 75 μL of plasma to make the final concentration of the compounds of 1 μM. The samples were incubated under a 37° C. water bath for 0 min, 15 min, 30 min, 60 min, 90 min, 120 min, and 180 min. […] The supernatant was analyzed by LC-MS with a sample injection volume of 2 μL.

**Q.** What does the source list for N#Cc1ccc(N2CCN(Cc3ccc(COc4cccc5c4CN([C@H]4CCC(=O)NC4=O)C5=O)cc3)CC2)c(F)c1 [CC-92480, reference compound]?
**A.** Mean tumor volume D0 (NCI-H929 xenograft tumor; 1 mg/kg qd, baseline at day of grouping (D0), n=7): 157.2 mm^3; Number of remaining animals/group (NCI-H929 xenograft tumor; 1 mg/kg qd/11d po): 7/7; % tumor regression D11 (NCI-H929 xenograft tumor; 1 mg/kg qd/11d po (i.g.), D11): 34%; Mean tumor volume D11 (NCI-H929 xenograft tumor; 1 mg/kg qd/11d po (i.g.), D11, n=7): 103.6 mm^3; AUC [1]: 1940 ng·h/mL; CL/F [1]: 17.2 mL/min/kg; Cmax [1]: 692 ng/mL; MRT [1]: 2.3 h; Vd/F [1]: 1.96 L/kg; half-life [1]: 1.3 h; half-life at 1 µM [2]: 3.32 h
